Counter-ions that a name gives are not always drawn.

Usually IC50 stands for the point on the concentration scale where inhibition reaches its midpoint.

The target of the assay is full-length human HDAC11 (Homo sapiens (Human), UniProt Q96DB2). The experiment in a line: Probe binding HDAC11 time resolved fluorescence (TRF) assay. The note with it: Table 2, read-out: HDAC11 IC50 Range. The method, then: The probe binding HDAC11 assay was performed using a time resolved fluorescence (TRF) assay format. Recombinant N-terminal GST tag full-length human HD AC 11 was expressed and purified from baculovirus in Sf9 insect cells (SignalChem, #H93-30G-1000). […] 4 μL of 2× probe and 2× anti-GST Terbium (Cisbio, #61GSTXLB) was added to assay plates followed by 4 μL of 2×HDAC11.
full-length human HDAC11, sequence (Q96DB2 whole entry): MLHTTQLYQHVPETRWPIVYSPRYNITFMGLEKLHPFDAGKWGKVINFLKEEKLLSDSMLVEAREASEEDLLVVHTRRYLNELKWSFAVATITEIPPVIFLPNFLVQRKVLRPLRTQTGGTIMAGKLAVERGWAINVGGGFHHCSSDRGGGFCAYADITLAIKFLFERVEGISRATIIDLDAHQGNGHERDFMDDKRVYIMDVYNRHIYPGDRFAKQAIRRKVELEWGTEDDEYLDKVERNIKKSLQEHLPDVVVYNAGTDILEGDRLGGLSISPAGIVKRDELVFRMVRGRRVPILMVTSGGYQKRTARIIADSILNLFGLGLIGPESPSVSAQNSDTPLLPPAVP
Data from HD AC 11 Assays were reported as percent inhibition (inh) compared with control wells based on the following equation: % inh=1−((FLU−AveLow)/(AveHigh−AveLow)) where FLU=measured time resolved fluorescence. AveLow=average time resolved fluorescence of no enzyme control (n=32). AveHigh=average time resolved fluorescence of DMSO control (n=32). IC50 values were determined by curve fitting of the standard 4 parameter logistic fitting algorithm included in the Activity Base software package: IDBS XE Designer Model205. Data is fitted using the Levenburg Marquardt algorithm.
`O=C(NO)c1cccc2c1CN(c1nc3cccnc3[nH]1)C2` [Compound 4-1, N-hydroxy-2-(3H-imidazo[4,5-b]pyridin-2-yl)isoindoline-4-carboxamide]: the IC50 was over 1000 nM. The figure for `O=C(NO)c1cccc2c1CN(c1nc3c([nH]1)C[C@@H](C(F)(F)F)CC3)C2` (single isomer, unassigned) [Compound 2-2, hydrochloride] is under 500 nM; for `CC1(C)c2cccc(C(=O)NO)c2CN1c1nc2cnccc2o1` [Compound 21-1, N-hydroxy-1,1-dimethyl-2-(oxazolo[4,5-c]pyridin-2-yl)isoindoline-4-carboxamide] it is under 500 nM. In the case of `CC1(C)c2cccc(C(=O)NO)c2CN1C(=O)Nc1cccc(C(F)(F)F)n1` [Compound 30-6, N4-hydroxy-1,1-dimethyl-N2-(6-(trifluoromethyl)pyridin-2-yl)isoindoline-2,4-dicarboxamide], the IC50 was over 1000 nM. For the compound `CC1(C)c2cccc(C(=O)NO)c2N[C@H]1c1ccc(C(F)(F)F)cn1` [Compound 40-1, (R)—N-hydroxy-3,3-dimethyl-2-(5-(trifluoromethyl)pyridin-2-yl)indoline-7-carboxamide], the IC50 was over 1000 nM.

Take `O=C(NO)c1cccc2c1CN(c1ccc3c(c1)OCCN3)C2` [Compound 9-1, 2-(3,4-dihydro-2H-benzo[b][1,4]oxazin-7-yl)-N-hydroxyisoindoline-4-carboxamide hydrochloride]: the IC50 is 500 to 1000 nM. As for `O=C(NO)c1cccc2c1CN(c1nc3c([nH]1)C[C@H](C(F)(F)F)CC3)C2` (single isomer, unassigned) [Compound 2-1, hydrochloride], the IC50 is under 500 nM. Turning to `CC1(C)c2cccc(C(=O)NO)c2CN1C(=O)c1cccc(C(F)(F)F)c1` [Compound 28-2, N-hydroxy-1,1-dimethyl-2-(3-(trifluoromethyl)benzoyl)isoindoline-4-carboxamide], the IC50 is over 1000 nM. For `CC1(C)c2cccc(C(=O)NO)c2CN1C(=O)c1ccc(C(F)(F)F)cc1` [Compound 28-1, N-hydroxy-1,1-dimethyl-2-(4-(trifluoromethyl)benzoyl)isoindoline-4-carboxamide], the IC50 was over 1000 nM. `CC1(C)c2cccc(C(=O)NO)c2CN1c1nc2c(o1)CC(C(F)(F)F)CC2` (centres unmarked) [Compound 19-2, N-hydroxy-1,1-dimethyl-2-(6-(trifluoromethyl)-4,5,6,7-tetrahydrobenzo[d]oxazol-2-yl)isoindoline-4-carboxamide]: the IC50 is under 500 nM. For the compound `COc1ccc(CN2Cc3cccc(C(=O)NO)c3C2)cc1` [Compound 41-2, N-hydroxy-2-(4-methoxybenzyl)isoindoline-4-carboxamide], the IC50 was over 1000 nM. Take `O=C(NO)c1cccc2c1CN(c1nc3cc(C(F)(F)F)ccc3s1)C2` [Compound 11-1, N-hydroxy-2-(5-(trifluoromethyl)benzo[d]thiazol-2-yl)isoindoline-4-carboxamide]: the IC50 is under 500 nM.

Take `CCCc1cnc(N2Cc3cccc(C(=O)NO)c3C2)[nH]1` [Compound 1-3, N-hydroxy-2-(5-propyl-1H-imidazol-2-yl)isoindoline-4-carboxamide]: the IC50 was over 1000 nM. The same measure for `CC1(C)CCc2nc(N3Cc4cccc(C(=O)NO)c4C3)[nH]c2C1` [Compound 1-5, 2-(5,5-dimethyl-4,5,6,7-tetrahydro-1H-benzo[d]imidazol-2-yl)-N-hydroxyisoindoline-4-carboxamide hydrochloride]: 500 to 1000 nM; for `O=C(NO)c1cccc2c1CN(C1=NC(O)(C(F)(F)F)C(c3ccccc3)=N1)C2` (centres unmarked) [Compound 44-1, N-hydroxy-2-(4-hydroxy-5-phenyl-4-(trifluoromethyl)-4H-imidazol-2-yl)isoindoline-4-carboxamide]: over 1000 nM. With `O=C(NO)c1cccc2c1CN(c1nc3ncccc3s1)C2` [Compound 10-1, N-hydroxy-2-(thiazolo[4,5-b]pyridin-2-yl)isoindoline-4-carboxamide], the concentration for half-maximal inhibition (IC50) is over 1000 nM. On to `O=C(NO)c1cccc2c1CN(c1cnc3cccnc3c1)C2` [Compound 8-1, N-hydroxy-2-(1,5-naphthyridin-3-yl)isoindoline-4-carboxamide], for which the IC50 was over 1000 nM. On to `CC1(C)c2cccc(C(=O)NO)c2CN1c1ccc2cc(C(F)(F)F)ccc2n1` [Compound 23-1, N-hydroxy-1,1-dimethyl-2-(6-(trifluoromethyl)quinolin-2-yl)isoindoline-4-carboxamide], for which the IC50 was under 500 nM. In the case of `CC1(C)c2cccc(C(=O)NO)c2CN1c1cc(C#N)c(C(F)(F)F)cn1` [Compound 27-2, 2-(4-cyano-5-(trifluoromethyl)pyridin-2-yl)-N-hydroxy-1,1-dimethylisoindoline-4-carboxamide], the IC50 was under 500 nM. For the compound `O=C(NO)c1cccc2c1CN(c1nc3ccncc3o1)C2` [Compound 5-2, N-hydroxy-2-(oxazolo[5,4-c]pyridin-2-yl)isoindoline-4-carboxamide], the IC50 was over 1000 nM. Regarding `CC1(C)c2cccc(C(=O)NO)c2CN1c1ccc(C(F)(F)F)c(C#N)n1` [Compound 27-1, 2-(6-cyano-5-(trifluoromethyl)pyridin-2-yl)-N-hydroxy-1,1-dimethylisoindoline-4-carboxamide], the IC50 was under 500 nM.

With `CC1(C)c2cccc(C(=O)NO)c2CN1c1nc2ccccc2o1` [Compound 25-1, 2-(benzo[d]oxazol-2-yl)-N-hydroxy-1,1-dimethylisoindoline-4-carboxamide], the IC50 was under 500 nM.

Turning to `O=C(NO)c1cccc2c1CN(C(=O)c1ccccc1)C2` [Compound 41-1, 2-benzoyl-N-hydroxyisoindoline-4-carboxamide], the IC50 is over 1000 nM.

In the case of `O=C(NO)c1cccc2c1CN(c1nc3c(o1)CCC(C(F)(F)F)C3)C2` (centres unmarked) [Compound 16-1, N-hydroxy-2-(5-(trifluoromethyl)-4,5,6,7-tetrahydrobenzo[d]oxazol-2-yl)isoindoline-4-carboxamide], the IC50 is under 500 nM. The same measure for `O=C(NO)c1cccc2c1N[C@H](c1ccc(C(F)(F)F)cc1)C2` [Compound 39-2, (S)—N-hydroxy-2-(4-(trifluoromethyl)phenyl)indoline-7-carboxamide]: over 1000 nM; for `CC1(C)c2cccc(C(=O)NO)c2CN1c1nc(C(F)(F)F)cs1` [Compound 22-9, N-hydroxy-1,1-dimethyl-2-(4-(trifluoromethyl)thiazol-2-yl)isoindoline-4-carboxamide]: over 1000 nM; for `O=C(NO)c1cccc2c1CN(c1ccc3ncccc3n1)C2` [Compound 7-3, N-hydroxy-2-(1,5-naphthyridin-2-yl)isoindoline-4-carboxamide]: over 1000 nM.

Regarding `O=C(NO)c1cccc2c1CC(c1ccc(C(F)(F)F)cc1)N2` (centres unmarked) [Compound 38-2, N-hydroxy-2-(4-(trifluoromethyl)phenyl)indoline-4-carboxamide], the IC50 was over 1000 nM. Regarding `CC(=O)N1CCc2nc(N3Cc4cccc(C(=O)NO)c4C3)[nH]c2C1` [Compound 14-1, 2-(5-acetyl-4,5,6,7-tetrahydro-3H-imidazo[4,5-c]pyridin-2-yl)-N-hydroxyisoindoline-4-carboxamide hydrochloride], the IC50 is over 1000 nM. The figure for `CC1(C)c2cccc(C(=O)NO)c2CN1C(=O)Nc1ccnc(C(F)(F)F)c1` [Compound 30-3, N4-hydroxy-1,1-dimethyl-N2-(2-(trifluoromethyl)pyridin-4-yl)isoindoline-2,4-dicarboxamide] is under 500 nM. For `CC1(C)c2cccc(C(=O)NO)c2CN1c1nc2ncccc2s1` [Compound 20-1, N-hydroxy-1,1-dimethyl-2-(thiazolo[4,5-b]pyridin-2-yl)isoindoline-4-carboxamide], the IC50 was over 1000 nM. `O=C(NO)c1cccc2c1CN(c1ncc3ccccc3n1)C2` [Compound 7-1, N-hydroxy-2-(quinazolin-2-yl)isoindoline-4-carboxamide]: the IC50 was over 1000 nM. On to `CC1(C)c2cccc(C(=O)NO)c2N[C@H]1c1ccc(C(F)(F)F)cc1` [Compound 40-5, (S)-N-hydroxy-3,3-dimethyl-2-(4-(trifluoromethyl)phenyl)indoline-7-carboxamide], for which the IC50 lay within 500 to 1000 nM. On to `COCCn1c(N2Cc3cccc(C(=O)NO)c3C2)nc2ccccc21` [Compound 1-7, N-hydroxy-2-(1-(2-methoxyethyl)-1H-benzo[d]imidazol-2-yl)isoindoline-4-carboxamide], for which the concentration for half-maximal inhibition (IC50) is over 1000 nM. With `CC1(C)c2cccc(C(=O)NO)c2CN1c1nc2cc(C(F)(F)F)ccc2s1` [Compound 20-2, N-hydroxy-1,1-dimethyl-2-(5-(trifluoromethyl)benzo[d]thiazol-2-yl)isoindoline-4-carboxamide], the IC50 was under 500 nM. As to `O=C(NO)c1cccc2c1CN(c1ccc3c(c1)NCCO3)C2` [Compound 9-2, 2-(3,4-dihydro-2H-benzo[b][1,4]oxazin-6-yl)-N-hydroxyisoindoline-4-carboxamide], the IC50 is over 1000 nM. On to `O=C(NO)c1cccc2c1CN(c1nc3cccc(-c4ccccc4)c3[nH]1)C2` [Compound 35-2, N-hydroxy-2-(7-phenyl-1H-benzo[d]imidazol-2-yl)isoindoline-4-carboxamide], for which the IC50 was over 1000 nM. With `CC1(C)c2cccc(C(=O)NO)c2CN1c1ccc2nc(C(F)(F)F)ccc2n1` [Compound 24-1, N-hydroxy-1,1-dimethyl-2-(6-(trifluoromethyl)-1,5-naphthyridin-2-yl)isoindoline-4-carboxamide], the IC50 is under 500 nM.

The record behind these values is US11535607B2, “Isoindolines as HDAC inhibitors” (Valo Health, Inc., priority 2018, dated 2022).
